# Laboratory results taken from ChEMBL document CHEMBL1781894, “Dibenzocyclooctadiene lignans with antineurodegenerative potential from Kadsura ananosma” (2011).
# How the values were obtained:
# [1] = tested on: SH-SY5Y; experiment: Neuroprotective activity against H2O2-induced neurotoxicity in human SH-SY5Y cells assessed as cell survival at 1 uM incubated for 2 hrs before H2O2 challenge measured after 24 hrs by MTT assay; assay type: functional; details: for viability at 1 µM: Homo sapiens, SH-SY5Y, read-out: Activity
# [2] = tested on: SH-SY5Y; experiment: Neuroprotective activity against H2O2-induced neurotoxicity in human SH-SY5Y cells assessed as cell survival at 10 uM incubated for 2 hrs before H2O2 challenge measured after 24 hrs by MTT assay; assay type: functional; details: for viability at 10 µM: Homo sapiens, SH-SY5Y, read-out: Activity
SMILES,viability at 1 µM [1] [%],viability at 10 µM [2] [%],Activity [1] [%],Activity [2] [%]
COc1cc2c(c(OC)c1OC)-c1c(cc3c(c1OC)OCO3)[C@H](OC(C)=O)[C@H](C)[C@H](C)C2 (stereo in doubt; 1) [KADSURIN],58.9,51.7,–,–
COc1cc2c(c(OC)c1OC)-c1c(cc3c(c1OC)OCO3)[C@H](OC(C)=O)[C@H](C)[C@H](C)C2 (stereo in doubt; 16) [KADSURIN],–,–,56.3,49.7
COc1cc2c(c(OC)c1OC)-c1c(cc3c(c1OC)OCO3)[C@@H](OC(C)=O)[C@@H](C)[C@H](C)C2=O [ANANOLIGNAN B],59.7,69.6,–,–
COc1cc2c(c(OC)c1OC)-c1c(cc3c(c1OC)OCO3)[C@H](O)[C@H](C)[C@H](C)[C@@H]2O [ANANOLIGNAN C],57.7,59.6,–,–
COc1cc2c(c(OC)c1OC)-c1c(cc3c(c1OC)OCO3)[C@H](OC(C)=O)[C@H](C)[C@H](C)[C@@H]2O [ANANOLIGNAN D],64.3,63,–,–
COc1cc2c(c(OC)c1OC)-c1c(cc3c(c1OC)OCO3)[C@H](O)[C@H](C)[C@H](C)[C@H]2OC(C)=O [ANANOLIGNAN E],62,56.3,–,–
COc1cc2c(c(OC)c1OC)-c1c(cc3c(c1OC)OCO3)[C@H](OC(C)=O)[C@H](C)[C@H](C)[C@H]2OC(C)=O [ANANOLIGNAN F],90,88.6,–,–
CCC(=O)O[C@H]1c2cc3c(c(OC)c2-c2c(cc(OC)c(OC)c2OC)[C@H](OC(C)=O)[C@@H](C)[C@H]1C)OCO3 [ANANOLIGNAN G],57.7,56.7,–,–
COc1cc2c(c(OC)c1OC)-c1c(cc3c(c1OC)OCO3)[C@H](OC(=O)C(C)C)[C@H](C)[C@H](C)[C@H]2OC(C)=O [ANANOLIGNAN H],64.1,63.9,–,–
CCCC(=O)O[C@H]1c2cc3c(c(OC)c2-c2c(cc(OC)c(OC)c2OC)[C@H](OC(C)=O)[C@@H](C)[C@H]1C)OCO3 [ANANOLIGNAN I],61.1,60.1,–,–
CCC(C)C(=O)O[C@H]1c2cc3c(c(OC)c2-c2c(cc(OC)c(OC)c2OC)[C@H](OC(C)=O)[C@@H](C)[C@H]1C)OCO3 (stereo partly drawn) [ANANOLIGNAN J],52.2,55.1,–,–
COc1cc2c(c(OC)c1OC)-c1c(cc3c(c1OC)OCO3)[C@H](OC(=O)c1ccccc1)[C@H](C)[C@H](C)[C@H]2OC(C)=O [ANANOLIGNAN K],68.9,71.4,–,–
C/C=C(\C)C(=O)O[C@H]1c2cc(OC)c(OC)c(OC)c2-c2c(cc3c(c2OC)OCO3)[C@H](OC(C)=O)[C@H](C)[C@@H]1C [ANANOLIGNAN L],79.2,66.9,–,–
C/C=C(/C)C(=O)O[C@H]1c2cc(OC)c(OC)c(OC)c2-c2c(cc3c(c2OC)OCO3)[C@H](OC(=O)C(C)C)[C@H](C)[C@@H]1C [ANANOLIGNAN M],74,64.5,–,–
C/C=C(/C)C(=O)O[C@H]1c2cc(OC)c(OC)c(OC)c2-c2c(cc3c(c2OC)OCO3)[C@H](OC(=O)CCC)[C@H](C)[C@@H]1C [ANANOLIGNAN N],75,66.8,–,–
C/C=C(\C)C(=O)O[C@H]1c2cc(OC)c(OC)c(OC)c2-c2c(cc3c(c2OC)OCO3)[C@H](O)[C@H](C)[C@@H]1C [ANANOSIN A],66.4,68.2,–,–
C/C=C(/C)C(=O)O[C@H]1c2cc(OC)c(OC)c(OC)c2-c2c(cc3c(c2OC)OCO3)[C@H](OC(C)=O)[C@H](C)[C@@H]1C [INTERIOTHERIN C],45.7,53.6,–,–
COc1cc2c(c(OC)c1OC)-c1c(cc3c(c1OC)OCO3)[C@H](O)[C@H](C)[C@H](C)C2 [ISOGOMISIN O],56.9,56.7,–,–
COc1cc2c(c(OC)c1OC)-c1c(cc3c(c1OC)OCO3)[C@H](O)[C@@H](C)[C@@H](C)C2 [YUNNANKADSURIN B],41.7,60.1,–,–
